Data reported in paper PMC9025901, “New Genetic Bomb Trigger: Design, Synthesis, Molecular Dynamics Simulation, and Biological Evaluation of Novel BIBR1532-Related Analogs Targeting Telomerase against Non-Small Cell Lung Cancer” (Pharmaceuticals, 2022).

What was measured:
[1] = biological target: T1, telomerase inside living cancer cells A549 (Homo sapiens, UniProt O14746); assay: Living-cell TRAP assay, A549; assay type: cell-based; settings: percent of control cells, 10 µM, 48 h
T1 construct: host or cells: A549
T1 sequence (O14746 whole entry): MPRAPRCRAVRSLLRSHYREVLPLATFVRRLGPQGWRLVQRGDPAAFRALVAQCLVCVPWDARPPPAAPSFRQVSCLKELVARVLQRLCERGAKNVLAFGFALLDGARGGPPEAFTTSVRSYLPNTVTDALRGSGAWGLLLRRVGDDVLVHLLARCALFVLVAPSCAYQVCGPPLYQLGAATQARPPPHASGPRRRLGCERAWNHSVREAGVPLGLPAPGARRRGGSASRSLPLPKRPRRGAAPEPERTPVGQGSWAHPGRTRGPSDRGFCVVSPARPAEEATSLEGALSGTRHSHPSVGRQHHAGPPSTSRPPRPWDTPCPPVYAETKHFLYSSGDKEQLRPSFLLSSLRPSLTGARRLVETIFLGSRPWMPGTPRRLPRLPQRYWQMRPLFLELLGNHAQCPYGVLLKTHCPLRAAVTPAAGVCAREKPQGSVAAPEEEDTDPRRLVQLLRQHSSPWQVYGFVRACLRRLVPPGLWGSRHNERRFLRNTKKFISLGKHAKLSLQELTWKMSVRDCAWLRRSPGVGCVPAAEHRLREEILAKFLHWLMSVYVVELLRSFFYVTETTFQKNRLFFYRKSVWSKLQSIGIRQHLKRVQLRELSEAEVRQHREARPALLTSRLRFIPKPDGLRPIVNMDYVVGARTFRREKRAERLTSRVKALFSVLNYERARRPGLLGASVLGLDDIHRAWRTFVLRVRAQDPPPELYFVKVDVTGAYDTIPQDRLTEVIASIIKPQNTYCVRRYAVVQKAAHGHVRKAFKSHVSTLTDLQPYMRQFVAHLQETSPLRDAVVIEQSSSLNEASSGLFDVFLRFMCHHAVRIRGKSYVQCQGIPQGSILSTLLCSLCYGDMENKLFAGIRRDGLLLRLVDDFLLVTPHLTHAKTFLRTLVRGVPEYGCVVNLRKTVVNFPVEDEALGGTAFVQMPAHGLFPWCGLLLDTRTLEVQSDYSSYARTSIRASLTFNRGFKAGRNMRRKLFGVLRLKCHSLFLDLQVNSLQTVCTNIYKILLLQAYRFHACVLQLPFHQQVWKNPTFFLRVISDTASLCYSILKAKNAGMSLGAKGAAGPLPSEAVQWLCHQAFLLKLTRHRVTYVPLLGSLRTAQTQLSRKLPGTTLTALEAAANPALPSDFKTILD
T1 sequence (O60832 whole entry partner): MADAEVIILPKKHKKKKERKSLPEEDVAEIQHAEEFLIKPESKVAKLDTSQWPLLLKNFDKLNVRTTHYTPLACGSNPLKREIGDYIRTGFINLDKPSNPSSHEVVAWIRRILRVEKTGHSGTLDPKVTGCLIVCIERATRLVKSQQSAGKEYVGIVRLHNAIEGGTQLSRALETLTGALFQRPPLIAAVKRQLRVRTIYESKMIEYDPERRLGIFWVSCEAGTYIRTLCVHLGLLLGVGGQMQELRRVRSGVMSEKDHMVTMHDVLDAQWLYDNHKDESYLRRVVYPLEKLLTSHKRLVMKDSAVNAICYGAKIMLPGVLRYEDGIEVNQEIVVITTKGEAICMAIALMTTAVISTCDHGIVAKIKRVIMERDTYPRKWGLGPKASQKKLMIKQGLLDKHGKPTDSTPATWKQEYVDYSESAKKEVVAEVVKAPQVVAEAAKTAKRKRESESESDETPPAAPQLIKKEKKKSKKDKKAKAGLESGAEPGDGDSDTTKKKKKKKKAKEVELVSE
T1 sequence (Q9NX24 whole entry partner): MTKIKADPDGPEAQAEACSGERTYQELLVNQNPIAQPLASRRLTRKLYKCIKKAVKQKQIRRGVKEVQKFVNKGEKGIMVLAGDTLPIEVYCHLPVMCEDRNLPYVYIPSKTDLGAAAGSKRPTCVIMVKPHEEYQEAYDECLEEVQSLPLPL
T1 sequence (Q9NPE3 whole entry partner): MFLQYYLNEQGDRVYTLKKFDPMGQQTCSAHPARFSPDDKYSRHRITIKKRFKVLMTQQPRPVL
T1 sequence (Q9NY12 whole entry partner): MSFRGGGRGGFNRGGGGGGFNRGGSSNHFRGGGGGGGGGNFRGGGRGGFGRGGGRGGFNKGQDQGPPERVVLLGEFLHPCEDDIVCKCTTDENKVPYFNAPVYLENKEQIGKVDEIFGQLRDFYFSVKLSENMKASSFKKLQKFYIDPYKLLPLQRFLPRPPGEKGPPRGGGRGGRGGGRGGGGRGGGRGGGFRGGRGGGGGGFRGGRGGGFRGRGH
T1 sequence (Q9BUR4 whole entry partner): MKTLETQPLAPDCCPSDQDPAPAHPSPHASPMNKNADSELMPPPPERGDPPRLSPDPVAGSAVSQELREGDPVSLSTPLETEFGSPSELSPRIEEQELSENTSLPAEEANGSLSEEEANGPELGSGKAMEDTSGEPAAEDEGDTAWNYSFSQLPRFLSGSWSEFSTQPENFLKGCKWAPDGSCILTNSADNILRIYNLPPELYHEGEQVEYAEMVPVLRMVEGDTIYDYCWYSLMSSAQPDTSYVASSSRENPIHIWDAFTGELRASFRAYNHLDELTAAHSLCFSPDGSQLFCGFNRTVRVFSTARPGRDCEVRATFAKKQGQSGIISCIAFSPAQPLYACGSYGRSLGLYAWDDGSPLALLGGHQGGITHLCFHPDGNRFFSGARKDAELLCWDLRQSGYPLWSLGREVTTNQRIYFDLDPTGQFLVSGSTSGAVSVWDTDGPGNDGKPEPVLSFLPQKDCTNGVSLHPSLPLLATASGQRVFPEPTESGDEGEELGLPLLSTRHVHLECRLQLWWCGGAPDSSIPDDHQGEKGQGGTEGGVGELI
Experimental: The Telomeric Repeat Amplification Protocol (TRAP) [61] was used to evaluate the activity of telomerase, with some changes that we have previously described [62, 63]. A549 cells (human epithelial cell lung carcinoma, ATCC, Manassas, VA) were lysed in (10 mM) Tris-HCl, pH 7.5, (1 mM) EGTA, (1 mM) MgCl2, (5 mM) 2-mercaptoethanol, (0.1 mM) PMSF, (0.5%) CHAPS, and (10%) glycerol (Sigma-Aldrich, St. Louis, MO, USA) and centrifugation. The supernatants were kept at -80 °C. The BCA-1 Protein Assay Kit was used to assess the protein concentration in cell extracts (Sigma-Aldrich, St. Louis, MO, USA). […] To inactivate telomerase, the cells were elongated for 30 min at 37 °C and 10 min at 96 °C. Copy CX-primer was added to the elongation mixture along with 0.1 μL ([NT]) and 2.5 units Taq-polymerase, followed by the following PCR: 94 °C for 5 min; 30 cycles of 94 °C for 30 s, 50 °C for 30 s, and 72 °C for 40 s, and 72 °C for 5 min. TBE buffer and (12%) nondenaturing PAAG electrophoresis were used to visualize the PCR product. 10 μL of each sample was placed in each well of gel comb. The gels were stained with the SYBR Green I (Invitrogen, Grand Island, NY, USA), then photographed under the UV light in ChemiDocTM XRS imaging system and analyzed with GelAnalyzer 2010.

K-562 = assay: NCI-60 in vitro anticancer screening (SRB); settings: K-562, Leukemia; 10 µM, 48 h
Experimental: (§1) The cancer screening panel’s human tumor 60 cell lines were cultured in the RPMI 1640 medium with (5%) fetal bovine serum and (2 mM) L-glutamine. For a screening experiment, cells were injected onto 96-well microtiter plates (100 µL), with plating densities varying from 5 to 40 × 10^3 cells per well, depending on different cell lines’ doubling times. Before introducing experimental drugs, the microtiter plates were incubated overnight at 37 °C, 95% air, 5% CO2, and 100% relative humidity after cell injection. TCA was employed to keep each cell line in place overnight, resembling a computation of the cell population for every cell line at the time of the addition of the drug. The experimental drugs were chilled after solubilization in DMSO at 400 times the final maximum test concentration. At the moment of the addition of the drug, the aliquot of the frozen concentrate was thawed and diluted to twice the required final maximum concentration with the complete medium containing (50 µg/mL) gentamicin. […] The bound dye was then solubilized with a (10 mM) trizma base, and absorbance was calculated at 515 nm on an automatic reader. […] The % growth of treated cells was established using seven absorbance measurements and compared to untreated control cells [57].

MOLT-4 = assay: NCI-60 in vitro anticancer screening (SRB); settings: MOLT-4, Leukemia; 10 µM, 48 h
Experimental: as §1

EKVX = assay: NCI-60 in vitro anticancer screening (SRB); settings: Lung cancer (NSCLC), 10 µM, 48 h
Experimental: as §1

HOP-62 = assay: NCI-60 in vitro anticancer screening (SRB); settings: HOP-62, Lung cancer (NSCLC); 10 µM, 48 h
Experimental: as §1

NCI-H226 = assay: NCI-60 in vitro anticancer screening (SRB); settings: NCI-H226, Lung cancer (NSCLC); 10 µM, 48 h
Experimental: as §1

HCC-2998 = assay: NCI-60 in vitro anticancer screening (SRB); settings: HCC-2998, Colon cancer; 10 µM, 48 h
Experimental: as §1

HCT-15 = assay: NCI-60 in vitro anticancer screening (SRB); settings: HCT-15, Colon cancer; 10 µM, 48 h
Experimental: as §1

HT29 = assay: NCI-60 in vitro anticancer screening (SRB); settings: HT29, Colon cancer; 10 µM, 48 h
Experimental: as §1

SF-268 = assay: NCI-60 in vitro anticancer screening (SRB); settings: SF-268, CNS cancer; 10 µM, 48 h
Experimental: as §1

SF-295 = assay: NCI-60 in vitro anticancer screening (SRB); settings: SF-295, CNS cancer; 10 µM, 48 h
Experimental: as §1

SF-539 = assay: NCI-60 in vitro anticancer screening (SRB); settings: SF-539, CNS cancer; 10 µM, 48 h
Experimental: as §1

LOX IMVI = assay: NCI-60 in vitro anticancer screening (SRB); settings: Melanoma, 10 µM, 48 h
Experimental: as §1

M14 = assay: NCI-60 in vitro anticancer screening (SRB); settings: M14, Melanoma; 10 µM, 48 h
Experimental: (§2) The cancer screening panel’s human tumor 60 cell lines were cultured in the RPMI 1640 medium with (5%) fetal bovine serum and (2 mM) L-glutamine. For a screening experiment, cells were injected onto 96-well microtiter plates (100 µL), with plating densities varying from 5 to 40 × 10^3 cells per well, depending on different cell lines’ doubling times. Before introducing experimental drugs, the microtiter plates were incubated overnight at 37 °C, 95% air, 5% CO2, and 100% relative humidity after cell injection. TCA was employed to keep each cell line in place overnight, resembling a computation of the cell population for every cell line at the time of the addition of the drug. The experimental drugs were chilled after solubilization in DMSO at 400 times the final maximum test concentration. At the moment of the addition of the drug, the aliquot of the frozen concentrate was thawed and diluted to twice the required final maximum concentration with the complete medium containing (50 µg/mL) gentamicin. The required final concentration of the drug (10 µM) was reached by adding 100 µL aliquots of these definite dilutions of the drug to suitable microtiter wells previously holding a medium of 100 µL. […] The bound dye was then solubilized with a (10 mM) trizma base, and absorbance was calculated at 515 nm on an automatic reader. […]

SK-MEL-28 = assay: NCI-60 in vitro anticancer screening (SRB); settings: SK-MEL-28, Melanoma; 10 µM, 48 h
Experimental: as §2

UACC-257 = assay: NCI-60 in vitro anticancer screening (SRB); settings: UACC-257, Melanoma; 10 µM, 48 h
Experimental: as §1

IGROV1 = assay: NCI-60 in vitro anticancer screening (SRB); settings: IGROV1, Ovarian cancer; 10 µM, 48 h
Experimental: as §1

OVCAR-4 = assay: NCI-60 in vitro anticancer screening (SRB); settings: OVCAR-4, Ovarian cancer; 10 µM, 48 h
Experimental: as §1

OVCAR-8 = assay: NCI-60 in vitro anticancer screening (SRB); settings: OVCAR-8, Ovarian cancer; 10 µM, 48 h
Experimental: as §1

NCI/ADR-RES = assay: NCI-60 in vitro anticancer screening (SRB); settings: Ovarian cancer, 10 µM, 48 h
Experimental: as §1

ACHN = assay: NCI-60 in vitro anticancer screening (SRB); settings: Renal cancer, 10 µM, 48 h
Experimental: as §2

CAKI-1 = assay: NCI-60 in vitro anticancer screening (SRB); settings: CAKI-1, Renal cancer; 10 µM, 48 h
Experimental: as §2

UO-31 = assay: NCI-60 in vitro anticancer screening (SRB); settings: UO-31, Renal cancer; 10 µM, 48 h
Experimental: as §1

PC-3 = assay: NCI-60 in vitro anticancer screening (SRB); settings: PC-3, Prostate cancer; 10 µM, 48 h
Experimental: as §1

DU-145 = assay: NCI-60 in vitro anticancer screening (SRB); settings: DU-145, Prostate cancer; 10 µM, 48 h
Experimental: as §1

MCF7 = assay: NCI-60 in vitro anticancer screening (SRB); settings: MCF7, Breast cancer; 10 µM, 48 h
Experimental: as §2

MDA-MB-231/ATCC = assay: NCI-60 in vitro anticancer screening (SRB); settings: Breast cancer, 10 µM, 48 h
Experimental: as §2

T-47D = assay: NCI-60 in vitro anticancer screening (SRB); settings: Breast cancer, 10 µM, 48 h
Experimental: as §2

MDA-MB-468 = assay: NCI-60 in vitro anticancer screening (SRB); settings: MDA-MB-468, Breast cancer; 10 µM, 48 h
Experimental: as §1

In the case of N#C/C(=C\c1ccc2ccccc2c1)C(=O)Nc1sc2c(c1C#N)CCCC2 [Compound 36b, (2E)-2-Cyano-N-(3-cyano-4,5,6,7-tetrahydro-1-benzothiophen-2-yl)-3-(naphthalen-2-yl)prop-2-enamide], the “% Telomerase Activity in Cancer Cells” value [1] is reported as 18.1 ± 5.4%, the “Growth Percent” value (K-562) is reported as 99.98% and the “Growth Percent” value (MOLT-4) is reported as 100.37%. The “Growth Percent” value (EKVX) was 92.47%, the “Growth Percent” value (HOP-62) was 98.36% and the “Growth Percent” value (NCI-H226) was 89.78%. For the same molecule, the “Growth Percent” value (HCC-2998) was 114.98%, the “Growth Percent” value (HCT-15) was 99.95% and the “Growth Percent” value (HT29) was 112.60%. The “Growth Percent” value (SF-268) was 104.45%, the “Growth Percent” value (SF-295) was 95.53% and the “Growth Percent” value (SF-539) was 98.71%. The “Growth Percent” value (LOX IMVI) was 102.88%, the “Growth Percent” value (M14) was 94.57% and the “Growth Percent” value (SK-MEL-28) was 102.31%. The “Growth Percent” value (UACC-257) was 102.32%, the “Growth Percent” value (IGROV1) was 103.06% and the “Growth Percent” value (OVCAR-4) was 100.16%. For the same molecule, the “Growth Percent” value (OVCAR-8) was 102.91%, the “Growth Percent” value (NCI/ADR-RES) was 99.44% and the “Growth Percent” value (ACHN) was 103.29%. The “Growth Percent” value (CAKI-1) was 94.28%, the “Growth Percent” value (UO-31) was 81.95% and the “Growth Percent” value (PC-3) was 104.77%. The “Growth Percent” value (DU-145) was 99.89%, the “Growth Percent” value (MCF7) was 92.41% and the “Growth Percent” value (MDA-MB-231/ATCC) was 92.15%. For the same molecule, the “Growth Percent” value (T-47D) was 97.26% and the “Growth Percent” value (MDA-MB-468) was 90.36%.
